Common to all, as to assay type: in vitro ADME
Data set [1] in a line: Metabolic stability in liver microsomes (CD-1 mouse). The conditions noted are these: CD-1 mouse liver microsomes 0.5 mg/mL, compound 1 μM, NADPH 1 mM, 37° C.; for half-life at 1 μM: pH 7.4. How it is done: (§1) 1. Source of liver microsomes: human liver microsomes (Corning 452117), CD-1 mouse liver microsomes (XENOTECH M1000)
(§2) 1. Formulation of 100 mM phosphate buffer solution (PBS): 7.098 g of Na2HPO4 was weighed and ultrasonically dissolved in 500 mL of pure water to form Solution A. 3.400 g of KH2PO4 was weighed and ultrasonically dissolved in 250 mL of pure water to form Solution B. Solution A was placed in a stirrer and Solution B was slowly added until the pH value reached 7.4, thus formulating 100 mM PBS buffer solution.
(§3) The reaction system was formulated according to Table 3 below.
(§4) 3. The reaction system was placed in a water bath at 37° C. and pre-incubated for 10 minutes. 40 μL of 10 mM NADPH solution (NADPH was dissolved in 100 mM phosphate buffer solution) was added into the reaction system, and the final concentration of NADPH was 1 mM. 40 μL of Phosphate buffer solution was used instead of the NADPH solution as a negative control. The negative control was used to rule out the influence caused by the chemical stability of the compounds per se.
(§5) 4. The reaction system was added with 4 μL of 100 μM the compound of the present disclosure and Verapamil (the positive control compound) (DMSO as the vehicle), so that the reaction was initiated. The final concentration of the compound was 1 μM.
(§6) 5. At 0.5, 15, 30, 45 and 60 minutes, after being well mixed in a vortex oscillator, 50 μL of the incubated samples were taken out respectively, and the reaction was terminated with ice acetonitrile (4-fold) containing an internal standard. The samples were centrifuged at 3220 g for 45 minutes. After the centrifugation, 90 μL of the supernatants were transferred to a sample plate and mixed well with 90 μL of ultrapure water for LC-MS/MS analysis.
(§7) All data were calculated by Microsoft Excel software. Peak areas were determined from the extracted ion chromatograms. The in-vitro half-life (t1/2) of the parent drug was determined by the linear fitting of the natural logarithm of the elimination percentage of the parent drug versus time.
(§8) The in-vitro half-life (t1/2) was calculated from the slope: […]

A short description of data set [2]: Metabolic stability in liver microsomes (human). The settings on record: Human being liver microsomes 0.5 mg/mL, compound 1 μM, NADPH 1 mM, 37° C.; for half-life at 1 μM: pH 7.4. On the procedure: as §1, §2, §3, §4, §5, §6, §7, §8
The test system of data set [3] is CD-1 mouse plasma. Put plainly: Plasma protein binding rate assay (equilibrium dialysis). The conditions noted are these: compound 1 μM, equilibrium dialysis 6 hours at 37° C. On the procedure:
1. CD-1 mouse plasma (BioIVT)
1. Formulation of a buffer solution containing 100 mM sodium phosphate and 150 mM NaCl: An alkaline solution containing Na2HPO4 (14.2 g/L) and NaCl (8.77 g/L) was formulated with ultrapure water. An acidic solution containing NaH2PO4 (12.0 g/L) and NaCl (8.77 g/L) was formulated with ultrapure water. The alkaline solution was titrated with the acidic solution until the pH value was 7.4, thus formulating the buffer solution containing 100 mM sodium phosphate and 150 mM NaCl.
2. Preparation of dialysis membrane: The dialysis membrane was immersed in ultrapure water for 60 minutes to separate the membrane into two pieces, then immersed in 20% ethanol for 20 minutes, and finally immersed in a buffer for dialysis for 20 minutes.
3. Preparation of plasma: Frozen plasma was thawed rapidly at room temperature. Thereafter, the plasma was centrifuged at 3220 g for 10 minutes at 4° C. to remove clots, and the supernatant was collected into a new centrifuge tube. The pH values of plasma were measured and recorded. The plasma with a pH value of 7 to 8 was used.
4. Formulation of compound-containing plasma samples: A 10 mM stock solution of the compound of the present disclosure or the positive control compound was diluted with DMSO to obtain a 200 μM working solution. 3 μl of the 200 μM working solution of the compound was added into 597 μl of mouse plasma to obtain a plasma sample with a final concentration of 1 μM.
5. Steps of equilibrium dialysis: The dialysis device was assembled according to the operating instructions. 120 μL of a plasma sample containing 1 μM compound was added on one side of the dialysis membrane, and an equal volume of dialysate (phosphate buffer solution) was added on the other side. Duplicate samples were set in the experiment. The dialysis plate was sealed and placed in an incubation device where the samples were incubated at 37° C. in an atmosphere containing 5% CO2 for 6 hours with a rotational speed of about 100 rpm. After the incubation was complete, the sealing membrane was removed. 50 μl of samples were respectively aspirated from the buffer solution side and the plasma side of each well and transferred into different wells of a new plate. 50 μl of blank plasma was added into the sample obtained from the phosphate buffer solution side, and an equal volume of blank phosphate buffer solution was added into the plasma sample, followed by the addition of 300 μl of acetonitrile containing the internal standard to precipitate protein. The sample was vortexed for 5 minutes and centrifuged at 3220 g for 30 minutes at 4° C. 100 μl of the supernatant was aspirated and transferred to the sample plate, mixed well with 100 μL of ultrapure water, and used for LC-MS/MS analysis.
The peak areas of the compounds on the buffer solution side and the plasma side were determined. The formula for calculating the plasma protein binding rate of the compound was as follows:
% Free rate=(the ratio of the peak area of the compound to the peak area of the internal standard on the buffer solution side/the ratio of the peak area of the compound to the peak area of the internal standard on the plasma side)×100
% Binding rate=100−% free rate

Molecules are shown by their SMILES. Where only a bound is given, the exact number is not on record here.

In the case of `CC(C)OC(=O)NC1CCC(c2ncc(-c3ccc(Nc4ccc(F)cn4)cc3S(=N)(=O)C3CC3)s2)CC1` (stereo not drawn) [Example 81, isopropyl trans-N-[4-[5-[2-(cyclopropylsulfonimidoyl)]-4-[(5-fluoro-2-pyridyl)amino]phenyl]thiazol-2-yl]cyclohexyl]carbamate], the half-life at 1 μM in data set [1] was 3.5 h; in data set [2] it was 5.32 h. For the same compound, the “% Binding Rate” value in data set [3] came out at 99.7%^.

Consider `CC(C)OC(=O)Nc1ccc(-c2cnc(C3CCC(NC(=O)OC(C)C)CC3)s2)c([S+]([O-])C(C)C)c1` (stereo not drawn) [Example 32, isopropyl trans-N-[4-[2-[4-(isopropoxycarbonylamino)cyclohexyl]thiazol-5-yl]-3-isopropylsulfinyl-phenyl]carbamate], for which the results for the half-life at 1 μM in data set [1] and in data set [2] were 2.7 h and 4.18 h, respectively. Besides, the “% Binding Rate” value in data set [3] is recorded as 99%.

Turning to `CC(C)OC(=O)Nc1ccc(-c2cnc([C@H]3CC[C@H](NC(=O)OC(C)C)CC3)s2)c(S(=O)(=O)C(C)C)c1` [Example 2, isopropyl trans-N-[4-[2-[4-(isopropoxycarbonylamino)cyclohexyl]thiazol-5-yl]-3-isopropylsulfonyl-phenyl]carbamate], the half-life at 1 μM came to 4.27 h in data set [1] and 2.42 h in data set [2]. Further, the “% Binding Rate” value in data set [3] is 99.4%^.

Turning to `Cc1cc(Nc2ccc(-c3cnc([C@H]4CC[C@H](NC(=O)OC(C)C)CC4)s3)c(P3(=O)CCCC3)c2)n[nH]1` [Example 47, isopropyl trans-N-[4-[5-[4-[(5-methyl-1H-pyrazol-3-yl)amino]-2-(1-oxidophospholan-1-yl)phenyl]thiazol-2-yl]cyclohexyl]carbamate], the half-life at 1 μM in data set [1] was found to be 7.28 h; in data set [2], 5.05 h. In addition, in data set [3], the “% Binding Rate” value is given as 99%.

In the case of `Cc1cc(Nc2ccc(-c3cnc(C4CCC(NC(=O)OC(C)C)CC4)s3)c(S(=N)(=O)C3CC3)c2)n[nH]1` (stereo not drawn) [Example 50, isopropyl trans-N-[4-[5-[2-(cyclopropylsulfonimidoyl)-4-]((5-methyl-1H-pyrazol-3-yl)amino]phenyl]thiazol-2-yl]cyclohexyl]carbamate], the half-life at 1 μM in data set [1] came out at 6.27 h; in data set [2], 7.92 h. Also, the “% Binding Rate” value in data set [3] amounted to 96%.

For `CC(C)OC(=O)Nc1ccc(-c2cnc([C@H]3CC[C@H](NC(=O)OC(C)C)CC3)s2)c(S(=O)(=O)C2CC2)c1` [Example 33, isopropyl trans-N-[3-cyclopropylsulfonyl-4-[2-[4-(isopropoxycarbonylamino)cyclohexyl]thiazol-5-yl]phenyl]carbamate], the half-life at 1 μM in data set [1] was 4.13 h; in data set [2], more than 8.33 h. For the same compound, the “% Binding Rate” value in data set [3] was 99%.

Regarding `CC(C)OC(=O)N[C@H]1CC[C@H](c2ncc(-c3ccc(NC(=O)NCc4ccccc4)cc3S(=N)(=O)C3CC3)s2)CC1` (stereo partly drawn) [Example 65, isopropyl trans-(4-(5-(4-(3-benzylureido)-2-(cyclopropanesulfonimidoyl)phenyl)thiazol-2-yl)cyclohexyl)carbamate], the half-life at 1 μM in data set [1] turned out to be 1.33 h; in data set [2], 1.85 h. For the same compound, in data set [3], the “% Binding Rate” value turned out to be 97%.

On to `COc1ccc(-c2ccc(-c3cnc([C@H]4CC[C@H](NC(=O)OC(C)C)CC4)s3)c([S@@](=N)(=O)C3CC3)c2)cn1` (stereo in doubt) [Example 94], for which the t1/2 stood at 3.4 h in data set [1] and 3.85 h in data set [2]. The “% Binding Rate” value in data set [3] came to 99.8%^.

`CC(C)OC(=O)N[C@H]1CC[C@H](c2ncc(-c3ccc(Nc4cn(C)nn4)cc3S(=N)(=O)C3CC3)s2)CC1` (stereo partly drawn) [Example 54]: the half-life at 1 μM in data set [1] and in data set [2] was more than 8.33 h each time. The “% Binding Rate” value in data set [3] came out at 95%.

As to `CC(C)OC(=O)Nc1ccc(-c2cnc([C@H]3CC[C@H](NC(=O)OC(C)C)CC3)s2)c(P(C)(C)=O)c1` [Example 1, isopropyl trans-N-[3-dimethylphosphoryl-4-[2-[4-(isopropoxycarbonylamino)cyclohexyl]thiazol-5-yl]phenyl]carbamate], the half-life at 1 μM in data set [1] and in data set [2] was more than 8.33 h throughout. Also, the “% Binding Rate” value in data set [3] is reported as 94%.

Consider `CC(C)OC(=O)Nc1ccc(-c2cnc([C@H]3CC[C@H](NC(=O)OC(C)C)CC3)s2)c(S(=N)(=O)C2CC2)c1` (stereo partly drawn) [Example 68, isopropyl trans-N-[3-(cyclopropylsulfonimidoyl)-4-[2-[4-(isopropoxycarbonylamino)cyclohexyl]thiazol-5-yl]phenyl]carbamate], for which the half-life at 1 μM came to 2.82 h in data set [1] and 3.12 h in data set [2]. In addition, in data set [3], the “% Binding Rate” value was 97%.

Consider `Cc1cc(Nc2ccc(-c3cnc([C@H]4CC[C@H](NC(=O)OC(C)C)CC4)s3)c(S(=O)(=O)C3CC3)c2)n[nH]1` [Example 48, isopropyl trans-(4-(5-(2-(cyclopropylsulfonyl)-4-((5-methyl-1H-pyrazol-3-yl)amino)phenyl)thiazol-2-yl)cyclohexyl)carbamate], for which the half-life at 1 μM was 7.2 h in data set [1] and more than 8.33 h in data set [2]. Further, in data set [3], the “% Binding Rate” value was determined as 99%.

Regarding `CC(C)OC(=O)Nc1ccc(-c2cnc(C3CCC(NC(=O)OC(C)C)CC3)s2)c(S(=N)(=O)C(C)C)c1` (stereo not drawn) [Example 3, isopropyl trans-N-[4-[2-[4-(isopropoxycarbonylamino)cyclohexyl]thiazol-5-yl]-3-(isopropylsulfonimidoyl)phenyl]carbamate], the half-life at 1 μM in data set [1] is more than 8.33 h; in data set [2] it was 7.95 h. Further, in data set [3], the “% Binding Rate” value was determined as 97%.

For `Cc1cc(Nc2ccc(-c3cnc([C@H]4CC[C@H](NC(=O)OC(C)C)CC4)s3)c(S(=N)(=O)C3CC3)c2)n(C)n1` (stereo partly drawn) [Example 98, isopropyl trans-(4-(5-(2-(cyclopropanesulfonimidoyl)-4-((1,3-dimethyl-1H-pyrazol-5-yl)amino)phenyl)thiazol-2-yl)cyclohexyl)carbamate], the half-life at 1 μM in data set [1] was more than 8.33 h; in data set [2], 2.28 h. Moreover, the “% Binding Rate” value in data set [3] was found to be 99%.

As to `Cc1cc(Nc2ccc(-c3cnc([C@H]4CC[C@H](NC(=O)OC(C)C)CC4)s3)c(S(=O)(=O)C3COC3)c2)n[nH]1` [Example 92, isopropyl trans-N-[4-[5-[4-[(5-methyl-1H-pyrazol-3-yl)amino]-2-(oxetan-3-ylsulfonyl)phenyl]thiazol-2-yl]cyclohexyl]carbamate], the half-life at 1 μM in data set [1] was 5.77 h; in data set [2], 6.37 h. The “% Binding Rate” value in data set [3] is given as 98.8%^.

The values above are taken from US20230142274A1 (SIMCERE PHARMACEUTICAL CO., LTD., priority 2020, published 2023).
